Results taken from paper PMC5320522, “Membrane targeting of TIRAP is negatively regulated by phosphorylation in its phosphoinositide-binding motif” (Scientific Reports, 2017).
Where two headings read alike, the source gives them in different places.

Columns and labels:
Format in all cases: binding
[1] = biological target: T1, TIRAP PBM (Homo sapiens, UniProt P58753); test: SPR, L1 chip with liposomes, steady-state fit; details: DOPC liposomes with 5% PtdIns(4,5)P2; 20 mM HEPES pH 7, 100 mM NaCl; room temperature; read-out: KD (apparent)
T1 construct: recombinant (isotope-labelled) or synthetic (Thr28-P); GST-fused in overlay assays
T1 sequence (P58753 15-35): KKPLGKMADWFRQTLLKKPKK

[2] = biological target: T1, TIRAP PBM; test: SPR, L1 chip with liposomes, steady-state fit; details: DOPC liposomes with 5% PtdIns(4,5)P2; 20 mM HEPES pH 7, 100 mM NaCl; room temperature; synthetic peptide phosphorylated at Thr28; saturation not reached
[3] = biological target: T1, TIRAP PBM; test: 1H, […]-HSQC NMR; lipid-protein overlay; details: DPC micelles, pH 6, 25 °C (NMR)

Compound | Kd [1] | Kd [2] | 1H,15N-HSQC NMR; lipid-protein overlay [3]
PtdIns(4,5)P2 | 233 ± 45 nM | 787 ± 291 nM | –
CCCCCCCCCCCCCCCC(=O)OC[C@H](COP(=O)(O)O[C@@H]1[C@H](O)[C@H](O)[C@@H](OP(=O)(O)O)[C@H](OP(=O)(O)O)[C@H]1O)OC(=O)CCCCCCCCCCCCCCC [c16-PtdIns(4,5)P2] | – | – | Similar, but larger, resonance perturbations in DPC-embedded TIRAP PBM spectra were observed
